Test results: the supplement of paper PMC4862054

Tested on: CAL-120
Assay: normalised response (% of control), CellTox Green; higher = less cell death (100 = DMSO, 0 = benzethonium chloride kill control)
Conditions: incubation time: 72 h
Method in brief: (§1)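 Breast cancer cell lines were exposed for 72 h in 384-well plates to compound at 5 concentrations, 10-fold apart, covering a 10,000-fold range fixed for each compound. Plates were read for CellTox Green fluorescence and CellTiter-Glo luminescence and normalised to 0.1 % DMSO (100) and a positive kill control (0). Each value is the normalised signal at one concentration of the series.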

| Compound | normalised response |
| --- | --- |
| CC[C@H](CO)Nc1nc(NCc2ccccc2)c2ncn(C(C)C)c2n1 [Seliciclib] (10000 nM) | 97.2% |
| O=[N+]([O-])c1ccc2c(c1)S(=O)(=O)C=C2 [Stattic] (50000 nM) | 27.8% |
| CC(C)n1cnc2c(NCCc3ccc(O)cc3)nc(-c3csc4ccccc34)nc21 [StemRegenin 1] (10000 nM) | 103% |

Tested on: HDQ-P1
Assay: as above
Conditions: incubation time: 72 h
Method in brief: as §1

| Compound | normalised response |
| --- | --- |
| CC1(COc2ccc3c(c2)ncn3-c2ccc3cccc(N4CCC(N)CC4)c3n2)COC1 [Crenolanib] (10000 nM) | 39.2% |
| CC[C@H](CO)Nc1nc(NCc2ccccc2)c2ncn(C(C)C)c2n1 [Seliciclib] (10000 nM) | 106% |
| O=[N+]([O-])c1ccc2c(c1)S(=O)(=O)C=C2 [Stattic] (50000 nM) | 27.2% |
| CC(C)n1cnc2c(NCCc3ccc(O)cc3)nc(-c3csc4ccccc34)nc21 [StemRegenin 1] (10000 nM) | 84.8% |

Tested on: Hs578T
Assay: as above
Conditions: incubation time: 72 h
Method in brief: as §1

| Compound | normalised response |
| --- | --- |
| CC1(COc2ccc3c(c2)ncn3-c2ccc3cccc(N4CCC(N)CC4)c3n2)COC1 [Crenolanib] (10000 nM) | 103% |
| CC[C@H](CO)Nc1nc(NCc2ccccc2)c2ncn(C(C)C)c2n1 [Seliciclib] (10000 nM) | 84.9% |
| O=[N+]([O-])c1ccc2c(c1)S(=O)(=O)C=C2 [Stattic] (50000 nM) | -12.9% |
| CC(C)n1cnc2c(NCCc3ccc(O)cc3)nc(-c3csc4ccccc34)nc21 [StemRegenin 1] (10000 nM) | -20% |

Tested on: MDA-MB-231
Assay: normalised response (% of control), CellTiter-Glo; higher = more viable cells (100 = DMSO, 0 = benzethonium chloride kill control)
Conditions: incubation time: 72 h
Description: (§2)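 DSRT, 72 h incubation, CellTox Green / CellTiter-Glo readout. Signal is normalised to DMSO and benzethonium chloride controls. Value is the normalised response at the highest dose.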

| Compound | normalised response |
| --- | --- |
| CC1(COc2ccc3c(c2)ncn3-c2ccc3cccc(N4CCC(N)CC4)c3n2)COC1 [Crenolanib] (10000 nM) | 0.75% |
| CC[C@H](CO)Nc1nc(NCc2ccccc2)c2ncn(C(C)C)c2n1 [Seliciclib] (10000 nM) | 81.1% |
| O=[N+]([O-])c1ccc2c(c1)S(=O)(=O)C=C2 [Stattic] (50000 nM) | -0.2% |
| CC(C)n1cnc2c(NCCc3ccc(O)cc3)nc(-c3csc4ccccc34)nc21 [StemRegenin 1] (10000 nM) | 85.3% |

Tested on: MDA-MB-436
Assay: as above
Conditions: incubation time: 72 h
Description: as §2

| Compound | normalised response |
| --- | --- |
| CC1(COc2ccc3c(c2)ncn3-c2ccc3cccc(N4CCC(N)CC4)c3n2)COC1 [Crenolanib] (10000 nM) | 7.1% |
| CC[C@H](CO)Nc1nc(NCc2ccccc2)c2ncn(C(C)C)c2n1 [Seliciclib] (10000 nM) | 79.9% |
| O=[N+]([O-])c1ccc2c(c1)S(=O)(=O)C=C2 [Stattic] (50000 nM) | -0.02% |
| CC(C)n1cnc2c(NCCc3ccc(O)cc3)nc(-c3csc4ccccc34)nc21 [StemRegenin 1] (10000 nM) | 74% |

Tested on: CAL-148
Assay: as above
Conditions: incubation time: 72 h
Description: as §2

| Compound | normalised response |
| --- | --- |
| CC1(COc2ccc3c(c2)ncn3-c2ccc3cccc(N4CCC(N)CC4)c3n2)COC1 [Crenolanib] (10000 nM) | 8.15% |
| CC[C@H](CO)Nc1nc(NCc2ccccc2)c2ncn(C(C)C)c2n1 [Seliciclib] (10000 nM) | 117% |
| O=[N+]([O-])c1ccc2c(c1)S(=O)(=O)C=C2 [Stattic] (50000 nM) | 0.45% |
| CC(C)n1cnc2c(NCCc3ccc(O)cc3)nc(-c3csc4ccccc34)nc21 [StemRegenin 1] (10000 nM) | 102% |

Tested on: SK-BR-3
Assay: as above
Conditions: incubation time: 72 h
Description: as §2

| Compound | normalised response |
| --- | --- |
| CC1(COc2ccc3c(c2)ncn3-c2ccc3cccc(N4CCC(N)CC4)c3n2)COC1 [Crenolanib] (10000 nM) | 2.13% |
| CC[C@H](CO)Nc1nc(NCc2ccccc2)c2ncn(C(C)C)c2n1 [Seliciclib] (10000 nM) | 86.2% |
| O=[N+]([O-])c1ccc2c(c1)S(=O)(=O)C=C2 [Stattic] (50000 nM) | 0.32% |
| CC(C)n1cnc2c(NCCc3ccc(O)cc3)nc(-c3csc4ccccc34)nc21 [StemRegenin 1] (10000 nM) | 68.3% |

Tested on: DU-4475
Assay: as above
Conditions: incubation time: 72 h
Description: as §2

| Compound | normalised response |
| --- | --- |
| CC1(COc2ccc3c(c2)ncn3-c2ccc3cccc(N4CCC(N)CC4)c3n2)COC1 [Crenolanib] (10000 nM) | 25% |
| CC[C@H](CO)Nc1nc(NCc2ccccc2)c2ncn(C(C)C)c2n1 [Seliciclib] (10000 nM) | 97.7% |
| O=[N+]([O-])c1ccc2c(c1)S(=O)(=O)C=C2 [Stattic] (50000 nM) | 0.04% |
| CC(C)n1cnc2c(NCCc3ccc(O)cc3)nc(-c3csc4ccccc34)nc21 [StemRegenin 1] (10000 nM) | 89.3% |

Tested on: HCC1143
Assay: as above
Conditions: incubation time: 72 h
Description: as §2

| Compound | normalised response |
| --- | --- |
| CC1(COc2ccc3c(c2)ncn3-c2ccc3cccc(N4CCC(N)CC4)c3n2)COC1 [Crenolanib] (10000 nM) | 75.8% |
| CC[C@H](CO)Nc1nc(NCc2ccccc2)c2ncn(C(C)C)c2n1 [Seliciclib] (10000 nM) | 96.3% |
| O=[N+]([O-])c1ccc2c(c1)S(=O)(=O)C=C2 [Stattic] (50000 nM) | 0.27% |
| CC(C)n1cnc2c(NCCc3ccc(O)cc3)nc(-c3csc4ccccc34)nc21 [StemRegenin 1] (10000 nM) | 93.6% |

Tested on: CAL-85-1
Assay: as above
Conditions: incubation time: 72 h
Description: as §2

| Compound | normalised response |
| --- | --- |
| CC1(COc2ccc3c(c2)ncn3-c2ccc3cccc(N4CCC(N)CC4)c3n2)COC1 [Crenolanib] (10000 nM) | 1.52% |
| CC[C@H](CO)Nc1nc(NCc2ccccc2)c2ncn(C(C)C)c2n1 [Seliciclib] (10000 nM) | 83.9% |
| O=[N+]([O-])c1ccc2c(c1)S(=O)(=O)C=C2 [Stattic] (50000 nM) | -0.24% |
| CC(C)n1cnc2c(NCCc3ccc(O)cc3)nc(-c3csc4ccccc34)nc21 [StemRegenin 1] (10000 nM) | 78.2% |

Tested on: BT-549
Assay: as above
Conditions: incubation time: 72 h
Description: as §2

| Compound | normalised response |
| --- | --- |
| CC1(COc2ccc3c(c2)ncn3-c2ccc3cccc(N4CCC(N)CC4)c3n2)COC1 [Crenolanib] (10000 nM) | 20.6% |
| CC[C@H](CO)Nc1nc(NCc2ccccc2)c2ncn(C(C)C)c2n1 [Seliciclib] (10000 nM) | 80.1% |
| O=[N+]([O-])c1ccc2c(c1)S(=O)(=O)C=C2 [Stattic] (50000 nM) | -0.12% |
| CC(C)n1cnc2c(NCCc3ccc(O)cc3)nc(-c3csc4ccccc34)nc21 [StemRegenin 1] (10000 nM) | 76.4% |

Tested on: BT-474
Assay: as above
Conditions: incubation time: 72 h
Description: as §2

| Compound | normalised response |
| --- | --- |
| CC1(COc2ccc3c(c2)ncn3-c2ccc3cccc(N4CCC(N)CC4)c3n2)COC1 [Crenolanib] (10000 nM) | 3.8% |
| CC[C@H](CO)Nc1nc(NCc2ccccc2)c2ncn(C(C)C)c2n1 [Seliciclib] (10000 nM) | 82.1% |
| O=[N+]([O-])c1ccc2c(c1)S(=O)(=O)C=C2 [Stattic] (50000 nM) | 0.34% |
